Test results from ChEMBL document CHEMBL1201862, “PubChem BioAssay data set” (2004).
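Exposure lasted 48 hours, with cells grown in 96-well plates and compounds tested at five concentrations. Here, GI50 denotes the concentration required for 50% inhibition of growth.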 Calls of active or inactive are those of the source. Rule as the data show it: active = GI50 up to about 1.1 µM and inactive = higher.

How the values were obtained:
Test in all cases: growth of human tumour cells (NCI), 48 h
A498 = test system: A498
COLO 205 = test system: COLO 205
DU-145 = test system: DU-145
HOP-62 = test system: HOP-62
HOP-92 = test system: HOP-92
IGROV-1 = test system: IGROV-1
K562 = test system: K562
KM12 = test system: KM12
MDA-N = test system: MDA-N
NCI-H226 = test system: NCI-H226
OVCAR-3 = test system: OVCAR-3
PC-3 = test system: PC-3
RXF 393 = test system: RXF 393
SF-295 = test system: SF-295
SK-MEL-5 = test system: SK-MEL-5
SNB-19 = test system: SNB-19
SR = test system: SR
U-251 = test system: U-251
CAKI-1 = test system: CAKI-1
MDA-MB-231 = test system: MDA-MB-231

Measured: GI50

COc1ccc2nc3c(C)cc4ccccc4n3c2c1
inactive: A498 11.9 µM | COLO 205 > 10 µM | DU-145 > 100 µM | HOP-62 75.3 µM | HOP-92 50.8 µM | IGROV-1 29.2 µM | K562 41.2 µM | KM12 > 100 µM | MDA-N > 100 µM | NCI-H226 > 100 µM | OVCAR-3 71 µM | PC-3 46.3 µM | RXF 393 25.8 µM | SF-295 78.7 µM | SK-MEL-5 57.9 µM | SNB-19 > 100 µM | SR 50.2 µM | U-251 44.7 µM

Cc1c2c(n(C)c1C)C(=O)C1C(C2=O)C2(C)c3ccccc3C1(C)c1ccccc12 (configuration not stated)
inactive: A498 > 100 µM | COLO 205 > 100 µM | DU-145 > 100 µM | HOP-62 > 100 µM | IGROV-1 > 100 µM | K562 > 100 µM | KM12 > 100 µM | NCI-H226 > 100 µM | OVCAR-3 > 100 µM | PC-3 > 100 µM | RXF 393 > 100 µM | SF-295 > 100 µM | SK-MEL-5 > 100 µM | SNB-19 > 100 µM | SR 24.4 µM | U-251 > 10 µM

COc1ccc(/C=C/c2ccnc3ccccc23)c(OC)c1
inactive: A498 7.87 µM | CAKI-1 > 10 µM | COLO 205 4.34 µM | DU-145 > 10 µM | HOP-62 > 10 µM | IGROV-1 7.87 µM | K562 3.54 µM | KM12 6 µM | MDA-MB-231 4.17 µM | MDA-N 3.41 µM | NCI-H226 4.51 µM | OVCAR-3 > 10 µM | PC-3 8.38 µM | RXF 393 > 10 µM | SF-295 6.18 µM | SK-MEL-5 3.66 µM | SNB-19 > 10 µM | U-251 9.02 µM

COc1cc(OC)cc(Oc2nc3cc(F)c(F)cc3nc2-c2ccccc2)c1
inactive: A498 > 100 µM | CAKI-1 > 100 µM | COLO 205 > 100 µM | DU-145 > 100 µM | HOP-62 > 100 µM | HOP-92 > 100 µM | IGROV-1 > 100 µM | KM12 > 100 µM | MDA-N > 100 µM | NCI-H226 > 100 µM | OVCAR-3 > 100 µM | PC-3 > 100 µM | RXF 393 > 100 µM | SF-295 > 100 µM | SK-MEL-5 > 100 µM | SNB-19 > 100 µM | SR > 100 µM | U-251 > 100 µM

CC(=O)OC/C=C(\C)CCC(Br)C(C)(C)Br (configuration not stated)
inactive: A498 > 10 µM | CAKI-1 > 10 µM | COLO 205 > 10 µM | DU-145 > 10 µM | HOP-62 > 10 µM | IGROV-1 > 10 µM | K562 > 10 µM | KM12 > 10 µM | MDA-MB-231 > 10 µM | MDA-N > 10 µM | NCI-H226 > 10 µM | OVCAR-3 > 10 µM | PC-3 > 10 µM | RXF 393 > 10 µM | SF-295 > 10 µM | SK-MEL-5 > 10 µM | SNB-19 > 10 µM | U-251 > 10 µM

CC(C)=NNC1=NC(C)(C)P(=O)(NNc2ncccn2)S1 (configuration not stated)
inactive: A498 > 100 µM | CAKI-1 > 100 µM | DU-145 > 100 µM | HOP-62 > 100 µM | HOP-92 > 100 µM | IGROV-1 > 100 µM | K562 > 100 µM | MDA-MB-231 > 100 µM | MDA-N > 100 µM | OVCAR-3 > 100 µM | PC-3 > 100 µM | RXF 393 > 100 µM | SF-295 > 100 µM | SK-MEL-5 > 100 µM | SNB-19 > 100 µM | U-251 > 100 µM

Brc1ccc2[nH]cc([C@@H]3CN[C@@H](c4c[nH]c5ccc(Br)cc45)CN3)c2c1
inactive: A498 15 µM | CAKI-1 8.93 µM | COLO 205 1.96 µM | DU-145 3.47 µM | HOP-62 8.18 µM | HOP-92 1.36 µM | IGROV-1 3.41 µM | K562 1.77 µM | KM12 2.07 µM | MDA-MB-231 3.79 µM | NCI-H226 7.55 µM | OVCAR-3 4.8 µM | PC-3 3.35 µM | RXF 393 5.48 µM | SF-295 3.72 µM | SK-MEL-5 7.93 µM | SNB-19 11.4 µM | SR 1.86 µM | U-251 4.39 µM

CCOC(=O)[C@]12C(=C(c3ccccc3)O[C@H]3C=CCC[C@H]31)C(=O)C(=O)N2c1ccccc1
inactive: A498 > 100 µM | CAKI-1 > 100 µM | COLO 205 > 100 µM | DU-145 > 100 µM | HOP-62 > 100 µM | K562 17.5 µM | KM12 37.7 µM | MDA-MB-231 > 100 µM | OVCAR-3 > 100 µM | PC-3 58.2 µM | RXF 393 > 100 µM | SF-295 98.4 µM | SK-MEL-5 93.8 µM | SNB-19 > 100 µM | SR 17.7 µM | U-251 13.4 µM

N#Cc1c(N)c2c(c(-c3ccccc3)c1-c1ccccc1)C(=O)N(NC(=S)Nc1ccccc1)C2=O
inactive: A498 43.3 µM | CAKI-1 > 100 µM | COLO 205 75.2 µM | DU-145 > 100 µM | HOP-92 34.2 µM | IGROV-1 43 µM | K562 88.7 µM | KM12 75.7 µM | MDA-MB-231 > 100 µM | NCI-H226 > 100 µM | OVCAR-3 64.4 µM | PC-3 30.5 µM | RXF 393 16.9 µM | SF-295 68.5 µM | SK-MEL-5 43.1 µM | SNB-19 > 100 µM | SR 68.7 µM | U-251 > 100 µM

CCOC(=O)NC(Nc1ccc(C)cc1)(C(F)(F)F)C(F)(F)F
inactive: A498 > 100 µM | COLO 205 > 100 µM | DU-145 > 100 µM | HOP-62 > 100 µM | HOP-92 > 100 µM | IGROV-1 > 100 µM | K562 > 100 µM | KM12 > 100 µM | MDA-MB-231 > 100 µM | MDA-N > 100 µM | NCI-H226 > 100 µM | OVCAR-3 > 100 µM | PC-3 > 100 µM | SF-295 > 100 µM | SK-MEL-5 > 100 µM | SNB-19 > 100 µM | U-251 > 100 µM

CNC(=O)CCCNC(=O)CCCC(=O)N(C)C
inactive: A498 > 100 µM | CAKI-1 > 100 µM | COLO 205 > 100 µM | DU-145 > 100 µM | HOP-62 > 100 µM | HOP-92 > 100 µM | IGROV-1 > 100 µM | K562 > 100 µM | KM12 > 100 µM | MDA-MB-231 > 100 µM | MDA-N > 100 µM | NCI-H226 > 100 µM | OVCAR-3 > 100 µM | PC-3 > 100 µM | SF-295 > 100 µM | SK-MEL-5 > 100 µM | SNB-19 > 100 µM | U-251 > 100 µM
